Experimental data taken from patent US9925153B2, “Therapeutic agents for skin diseases and conditions” (STC.UNM, priority 2013, dated 2018).
Entries after “also recorded” stand apart in the source; their conditions may differ. Like-named read-outs stand apart in the source and are kept apart here.

Assays:
[1] = system: NF-κB; test: Inhibition of TNFα-induced activation of NF-κB, 293T/NF-κB-luc luciferase reporter cells; type: cell-based, human; details: for Activity as inhibitor of TNFα-induced activation of NF-κB in the screen, in words: screened at 15 μM, compared to resveratrol; for IC50: Homo sapiens, HEK-293T
Experimental: The cells were maintained in Dulbecco's Modified Eagle's Medium (DMEM—high glucose containing 4 mM glutamine) supplemented with 10% fetal bovine serum (FBS), 1 mM sodium pyruvate, 100 units/ml penicillin, 100 μg/ml streptomycin and 100 μg/ml hygromycin (Gibco/Invitrogen, Carlsbad, Calif.) to maintain cell selection. […] The following day cells were fed fresh media 1 hour prior to treatment. […] Plate wells were gently washed with phosphate buffered saline, pH 7.4, and lysed with 1× passive lysis buffer (Promega, Madison, Wis.). The subsequent lysates were analyzed with the Luciferase Assay System (Promega) utilizing a TD-20/20 luminometer (Turner Designs, Sunnyvale, Calif.). The firefly luciferase relative light units were normalized to protein (mg/ml) with BCA™ Protein Assay Kit (Pierce, Rockford, Ill.) and standardized to percent of control (TNFα control).

[2] = FRAP anti-oxidant assay (reduction of ferric tripyridyltriazine complex)
Text: (§1) The total radical-trapping anti-oxidant parameter assay (TRAP assay) measures the ability of an analog to react with the pre-formed radical monocation of 2,2′-azinobis-(3-ethylbenzothiazoline-6-sulfonic acid) (ABTS.^+). The ferric reducing/anti-oxidant power assay (FRAP assay) measures the ability of an analog to reduce a ferric tripyridyltriazine complex.
(§2) In both colorimetric assays, the vitamin E analog Trolox was used as a control.
(§3) The anti-oxidant activities of certain stilbene analogs according to the present invention were determined using two standard assays. See, Schlesier, et al., Free Rad Res. 2002; 36:177-187. The total radical-trapping anti-oxidant parameter assay (TRAP assay) measures the ability of an analog to react with the pre-formed radical monocation of 2,2′-azinobis-(3-ethylbenzothiazoline-6-sulfonic acid) (ABTS.^+). See, Re, et al., Free Rad Biol Med, 26:1231-1237 (1999). […] The activities of curcumin and analogs were determined by their abilities to quench the color of the radical cation. […] The ferric complex of 2,4,6-tripyridyl-s-triazine was prepared at acidic pH, and the anti-oxidant activities of curcumin and analogs were determined by their abilities to reduce the ferric complex to the ferrous complex, monitored by formation of the ferrous complex at 593 nm. […]

[3] = TRAP anti-oxidant assay (quenching of ABTS radical cation)
Text: as §1, §2, §3

[4] = system: COX-2 mRNA; test: Inhibition of LPS-induced COX-2 mRNA expression in BV-2 microglial cells (qRT-PCR); type: cell-based, mouse; details: BV-2 cells, LPS 0.2 μg/ml, 24 hours; for Inhibition of LPS-induced COX-2 mRNA, in words: 0.15 μM
[5] = system: AP-1; test: Inhibition of TPA-induced activation of AP-1, 293T/AP-1-luc luciferase reporter cells; type: cell-based, human; details: for IC50: Homo sapiens
Experimental: An AP-1 reporter stable cell line derived from human 293T embryonic kidney cells transfected with a luciferase reporter construct containing three AP-1 binding sites in the promoter (293T/AP-1-luc, Panomics, Inc., Redwood City, Calif.) was grown in a humidified atmosphere at 37° C. in 5% CO2/95% air. The cells were maintained in Dulbecco's Modified Eagle's Medium (DMEM—high glucose containing 4 mM glutamine) supplemented with 10% fetal bovine serum (FBS), 1 mM sodium pyruvate, 100 units/ml penicillin, 100 μg/ml streptomycin and 100 μg/ml hygromycin (Gibco/Invitrogen, Carlsbad, Calif.) to maintain cell selection. One day prior to treatment, the 293T/AP-1-luc cells were plated into 24-well cell culture plates (Costar, Cambridge, Mass.) in the above media without hygromycin. The following day, the cells, which were at approximately 60% confluency, were fed fresh media with or without TPA, 10 ng/ml, (Calbiochem) and immediately treated with curcumin or analog prepared in DMSO stock solutions. The cells were placed again in a humidified atmosphere at 37° C. in 5% CO2/95% air for 24 hours. Plate wells were gently washed with phosphate buffered saline, pH 7.4, and lysed with Ix passive lysis buffer (Promega, Madison, Wis.). The subsequent lysates were analyzed with the Luciferase Assay System (Promega) utilizing a TD-20/20 luminometer (Turner Designs, Sunnyvale, Calif.). The firefly luciferase relative light units were normalized to protein (mg/ml) with BCA Protein Assay Kit (Pierce, Rockford, Ill.) and standardized to percent of control (TPA control).

[6] = transgenic model of Alzheimer's disease (ref. 10); cited from earlier work
[7] = Treatment of dogs with inflammatory skin conditions with LD55; type: in vivo, dog
Text: (§4) Table 3 summarizes the results from consecutive treatment with LD55 of dogs and cats with inflammatory skin conditions, where LD55 was applied as a 1% lotion.

[8] = Treatment of cats with inflammatory skin conditions with LD55; type: in vivo, cat; details: for outcome: Feline
Text: as §4

[9] = system: NF-κB; details: literature (ref. 35); cited from earlier work
[10] = 7 h, 293T/NF-κB-luc cells, TNFα 20 ng/ml, 7 hours, triplicate, read-out: IC50 for inhibition of the TNFα-induced activation of NFκB

COc1ccc(/C=C/c2ccccc2)cc1 [4b, (E)-4-Methoxystilbene]
Activity as inhibitor of TNFα-induced activation of NF-κB in the screen, in words [1]: especially active

COc1ccc(/C=C/c2cccc(Cl)c2)cc1 [6h, (E)-3-Chloro-4′-methoxystilbene]
IC50 [1, 10]: 1000 ± 100 nM

COc1ccc(/C=C/c2ccc(O)c(O)c2)cc1 [6x, (E)-3,4-Dihydroxy-4′-methoxystilbene]
IC50 [1, 10]: 600 ± 400 nM | Activity as inhibitor of TNFα-induced activation of NF-κB in the screen, in words [1]: considerably more active than resveratrol

COc1ccc(/C=C/c2ccc(C)cc2)cc1 [6d, (E)-4′-Methoxy-4-methylstilbene]
IC50 [1, 10]: 900 ± 100 nM

CN(C)c1ccc(/C=C/c2ccccc2)cc1 [4cc, (E)-4-N,N-Dimethylaminostilbene]
IC50 [1, 10]: 150 nM | Anti-oxidant activity in the FRAP assay, in words [2]: retained anti-oxidant activity; also recorded: exhibits anti-oxidant activity | Anti-oxidant activity in the TRAP assay, in words [3]: retained anti-oxidant activity; also recorded: exhibits anti-oxidant activity | Inhibition of LPS-induced COX-2 mRNA, in words [4]: almost as effective as 4 μM resveratrol

COc1cccc(/C=C/c2ccccc2)c1OC [4o, (E)-2,3-Dimethoxystilbene]
Activity as inhibitor of TNFα-induced activation of NF-κB in the screen, in words [1]: retained very little activity

O=C(/C=C/c1ccncc1)/C=C/c1ccncc1 [reference compound]
IC50 ([1]; TNFα-induced activation of NF-κB, Panomics reporter screening cells, read-out: NFκB IC50 (Tables 1A and 2A)): 3900 ± 300 nM | IC50 ([5]; AP1, TPA-induced activation of AP-1, Panomics reporter screening cells, read-out: AP-1 IC50 (Tables 1A and 2A)): 8200 ± 300 nM

COc1ccc(/C=C/c2cccc(C)c2)cc1 [6i, (E)-4′-Methoxy-3-methylstilbene]
IC50 [1, 10]: 800 ± 200 nM

COc1ccc(/C=C/c2cc(OC)cc(OC)c2)cc1 [6f, (E)-3,4′,5-Trimethoxystilbene]
Activity as inhibitor of TNFα-induced activation of NF-κB in the screen, in words [1]: especially active | IC50 ([5]; 24 h, read-out: IC50 for inhibition of the TPA-induced activation of AP-1): 3800 ± 1100 nM

COc1ccc(/C=C/c2ccccc2F)cc1 [6p, (E)-2-Fluoro-4′-methoxystilbene]
Ability to prevent brain inflammation and plaque accumulation [6]: effective | IC50 [1, 10]: 150 nM | Anti-oxidant activity in the FRAP assay, in words [2]: does not exhibit anti-oxidant activity | Anti-oxidant activity in the TRAP assay, in words [3]: does not exhibit anti-oxidant activity | Inhibition of LPS-induced COX-2 mRNA, in words [4]: almost as effective as 4 μM resveratrol | outcome ([7]; K9, Pempigus, 1% lotion): positive | outcome ([7]; K9, atopy, 1% lotion): positive | outcome ([7]; K9, hemangiosarcoma, 1% lotion): positive | outcome ([7]; K9, hot spot, 1% lotion): positive | outcome ([7]; K9, peri-analfistual, 1% lotion): positive | Nasal planum lesion after treatment ([7]; animal 1139, daily application, after 10 applications): the region was healing, the dried, flaking skin was gone and there was no bleeding | Peri-anal fistula healing ([7]; animal 3688, LD55 with combinations of standard forms of treatment, two weeks): nearly resulted in the fistula healing and closing | Inflammatory component of pathology (redness/itching, discomfort) ([7]; dogs, 1% lotion, all treated animals except two dogs with unknown outcome): marked improvement | outcome ([8]; atopy/ears, 1% lotion): positive | outcome ([8]; squamous cell carcinoma, 1% lotion): positive | Time for redness to disappear ([8]; animal 255, severe allergies, ears and face, applied twice a day): ≤ 24 h | Inflammatory component of pathology (redness/itching, discomfort) ([8]; cats, 1% lotion): marked improvement

COc1ccc(/C=C/c2ccccc2)c(OC)c1 [4u, (E)-2,4-Dimethoxystilbene]
Activity as inhibitor of TNFα-induced activation of NF-κB in the screen, in words [1]: especially active

C(=Cc1ccccc1)c1ccccc1 [stilbene]
Inhibition of TNF-induced activation of NF-κB [9]: inactive

COc1ccc(/C=C/c2ccccc2)cc1O [4s, (E)-3-Hydroxy-4-methoxystilbene]
Activity as inhibitor of TNFα-induced activation of NF-κB in the screen, in words [1]: considerably more active than resveratrol

COc1ccc(/C=C/c2cccc(OC)c2)cc1 [6r, (E)-3,4′-Dimethoxystilbene]
IC50 [1, 10]: 600 ± 100 nM | Activity as inhibitor of TNFα-induced activation of NF-κB in the screen, in words [1]: especially active; also recorded: highly active

Oc1ccc(/C=C/c2cc(O)cc(O)c2)cc1 [resveratrol, 3,4′,5-trihydroxystilbene, reference compound]
IC50 [1, 10]: 20000 ± 3000 nM | Effect on TPA-induced AP-1 activation, in words ([5]; 293T/AP-1-luc cells, TPA 10 ng/ml, 24 hours): activated | Inhibition of LPS-induced COX-2 mRNA ([4]; 4 μM): about 50% | Suppression of LPS-induced COX-2 mRNA ([4]; 20 μM): markedly suppressed

COc1ccc(/C=C/c2ccc(OC)cc2)cc1 [6b, (E)-4,4′-Dimethoxystilbene]
Activity as inhibitor of TNFα-induced activation of NF-κB in the screen, in words [1]: retained very little activity

COc1ccc(/C=C/c2cccc(OC)c2OC)cc1 [6o, (E)-2,3,4′-Trimethoxystilbene]
Activity as inhibitor of TNFα-induced activation of NF-κB in the screen, in words [1]: especially active

COc1ccc(/C=C/c2ccccc2Cl)cc1 [6j, (E)-2-Chloro-4′-methoxystilbene]
IC50 [1, 10]: 1500 ± 30 nM
